Data on twelve molecules can be found in ChEMBL document CHEMBL5260815, “Profiling of in vitro activities of urea-based inhibitors against cysteine synthases from Mycobacterium tuberculosis” (Bioorg Med Chem Lett, 2017).

Molecules are shown by their SMILES.

Sequence of O-phosphoserine sulfhydrylase (P9WP53 whole entry): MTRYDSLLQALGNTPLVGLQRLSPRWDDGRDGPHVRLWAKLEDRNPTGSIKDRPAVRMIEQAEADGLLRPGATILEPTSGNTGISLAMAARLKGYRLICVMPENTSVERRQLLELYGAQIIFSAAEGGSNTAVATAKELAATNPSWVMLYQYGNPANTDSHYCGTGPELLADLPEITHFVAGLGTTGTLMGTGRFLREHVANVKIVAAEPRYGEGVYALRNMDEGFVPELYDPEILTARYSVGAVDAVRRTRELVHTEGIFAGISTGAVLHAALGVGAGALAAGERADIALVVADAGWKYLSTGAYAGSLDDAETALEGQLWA

One assay has as its target O-phosphoserine sulfhydrylase (Mycobacterium tuberculosis (strain ATCC 25618 / H37Rv), UniProt P9WP53). In words: Inhibition of Mycobacterium tuberculosis CysM.
For the molecule `O=C(Nc1cccc(C(=O)O)c1)Nc1ccc(Cl)c(Cl)c1`, the IC50 (in general, the concentration needed to halve the response being measured) is 0.48 µM.

The target of the next assay is T1, O-acetylserine sulfhydrylase (Mycobacterium tuberculosis, UniProt P9WP55). Put plainly: Inhibition of hexahistidine-tagged recombinant Mycobacterium tuberculosis CysK1 expressed in Escherichia coli BL21(DE3) assessed as dissociation constant using PLP as substrate incubated for 5 mins by fluorescence analysis.
On to `O=C(Nc1cccc(C(=O)O)c1)Nc1ccc(Cl)c(Cl)c1`, for which the Kd (commonly the equilibrium constant for the complex coming apart) worked out at 241 µM.

For the molecule `COc1ccc(OC)c(NC(=O)Nc2ccccc2C(=O)O)c1`, the Kd turned out to be 59.9 µM.

With `O=C(Nc1cccc(C(=O)O)c1)Nc1cccc(-c2ccccc2)c1`, the Kd turned out to be 96.8 µM.

As to `O=C(Nc1ccc(Cl)c(Cl)c1)Nc1ccc(O)c(C(=O)O)c1`, the Kd was determined as 75.7 µM.

Consider `O=C(O)c1cccc(NS(=O)(=O)c2cccc(-c3ccc(Cl)c(Cl)c3)c2)c1`, for which the Kd worked out at 110 µM.

Another assay deals with T2, S-sulfocysteine synthase (Mycobacterium tuberculosis (strain ATCC 25618 / H37Rv), UniProt Q79FV4).
T2 sequence (Q79FV4 whole entry): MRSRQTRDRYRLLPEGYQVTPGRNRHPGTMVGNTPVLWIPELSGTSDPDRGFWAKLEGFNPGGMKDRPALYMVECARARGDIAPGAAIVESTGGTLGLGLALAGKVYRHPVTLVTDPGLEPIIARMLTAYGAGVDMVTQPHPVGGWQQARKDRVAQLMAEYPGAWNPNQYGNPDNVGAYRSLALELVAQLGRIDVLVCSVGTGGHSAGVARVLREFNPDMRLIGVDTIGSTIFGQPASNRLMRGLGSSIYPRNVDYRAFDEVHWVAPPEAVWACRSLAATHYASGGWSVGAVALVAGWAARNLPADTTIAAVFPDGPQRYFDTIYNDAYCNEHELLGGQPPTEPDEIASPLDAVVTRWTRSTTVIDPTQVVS
In words: Inhibition of hexahistidine-tagged recombinant Mycobacterium tuberculosis CysK2 expressed in Escherichia coli BL21(DE3) assessed as inhibition constant using […] as substrate by Lineweaver-Burk plot analysis.
Take `O=C(Nc1cccc(C(=O)O)c1)Nc1cccc(-c2ccccc2)c1`: the Ki (in general, a measure of affinity in units of concentration, obtained from inhibition or displacement) amounted to 1.1 µM.

The target in the next assay is T2, S-sulfocysteine synthase. Put plainly: Inhibition of hexahistidine-tagged recombinant Mycobacterium tuberculosis CysK2 expressed in Escherichia coli BL21(DE3) assessed as dissociation constant using PLP as substrate incubated for 5 mins by fluorescence analysis.
Regarding `Cc1ccc(NC(=O)Nc2cccc(C(=O)O)c2)cc1`, the Kd is 148 µM.

For the molecule `O=C(Nc1ccc(Cl)cc1)Nc1cccc(C(=O)O)c1`, the Kd was 16.9 µM.

On to `O=C(Nc1cccc(C(=O)O)c1)Nc1ccc(Cl)c(Cl)c1`, for which the Kd stood at 48.7 µM.

`O=C(Nc1cccc(C(=O)O)c1)Nc1cccc(-c2ccccc2)c1`: the Kd was 14.9 µM.

Turning to `O=C(Nc1ccc(Br)cc1)Nc1cccc(C(=O)O)c1`, the Kd stood at 17.7 µM.

As for `O=C(Nc1cccc(-c2nnn[nH]2)c1)Nc1ccc(Cl)c(Cl)c1`, the Kd came out at 80.3 µM.

With `O=C(Nc1cccc(-c2ccccc2)c1)Nc1ccc(O)c(C(=O)O)c1`, the Kd worked out at 102 µM.

The target in a further assay is T1, O-acetylserine sulfhydrylase. Put plainly: Inhibition of hexahistidine-tagged recombinant Mycobacterium tuberculosis CysK1 expressed in Escherichia coli BL21(DE3) assessed as amount of cysteine produced using O-acetyl-L-serine as substrate incubated for 12 mins by acid-ninhydrin based spectrophotometric assay.
On to `O=C(Nc1cccc(C(=O)O)c1)Nc1ccc(Cl)c(Cl)c1`, for which the IC50 is 11.2 µM.

As for `O=C(Nc1cccc(C(=O)O)c1)Nc1cccc(-c2ccccc2)c1`, the IC50 was found to be 4.9 µM.

Consider `O=C(Nc1ccc(Cl)c(Cl)c1)Nc1ccc(O)c(C(=O)O)c1`, for which the IC50 was found to be 2.5 µM.

Regarding `O=C(Nc1ccc(Br)cc1)Nc1ccc(C(=O)O)c(O)c1`, the IC50 was 29.4 µM.

With `O=C(Nc1cccc(-c2ccccc2)c1)Nc1ccc(C(=O)O)c(O)c1`, the IC50 worked out at 21.2 µM.

Consider `O=C(Nc1cccc(-c2ccccc2)c1)Nc1ccc(O)c(C(=O)O)c1`, for which the IC50 was found to be 9.3 µM.

The target of the next assay is T2, S-sulfocysteine synthase. In words: Inhibition of hexahistidine-tagged recombinant Mycobacterium tuberculosis CysK2 expressed in Escherichia coli BL21(DE3) assessed as amount of S-sulfocysteine produced using […] as substrate incubated for 30 mins by acid-ninhydrin based spectrophotometric assay.
As to `O=C(Nc1ccc(Cl)cc1)Nc1cccc(C(=O)O)c1`, the IC50 came out at 13 µM.

`O=C(Nc1cccc(C(=O)O)c1)Nc1ccc(Cl)c(Cl)c1`: the IC50 came to 10.1 µM.

Take `O=C(Nc1cccc(C(=O)O)c1)Nc1cccc(-c2ccccc2)c1`: the IC50 was 6.6 µM.

With `O=C(Nc1ccc(Br)cc1)Nc1cccc(C(=O)O)c1`, the IC50 was 27.6 µM.

Turning to `O=C(Nc1ccc(Cl)c(Cl)c1)Nc1ccc(O)c(C(=O)O)c1`, the IC50 came out at 29.9 µM.

Consider `O=C(Nc1cccc(-c2ccccc2)c1)Nc1ccc(C(=O)O)c(O)c1`, for which the IC50 was found to be 26.9 µM.

`O=C(Nc1cccc(-c2ccccc2)c1)Nc1ccc(O)c(C(=O)O)c1`: the IC50 came to 10.3 µM.
